Patent US10618918B2, “Substituted boronic acids as antimicrobials” (priority 2015, dated 2020)
Where two headings read alike, the source gives them in different places.

Key:
[1] = test system: KP1005 CTX-M-14; assay: Tigemonam potentiation (MPC@4), strain KP1005 CTX-M-14; conditions: minimum BLI concentration inhibiting growth with tigemonam 4 μg/mL; tested up to 40 μg/mL
[2] = test system: KP1004 KPC-2; assay: Aztreonam potentiation (MPC@4), strain KP1004 KPC-2; conditions: minimum BLI concentration inhibiting growth with aztreonam 4 μg/mL; tested up to 40 μg/mL
[3] = test system: KP1010 SHV-12; assay: Aztreonam potentiation (MPC@4), strain KP1010 SHV-12; conditions: minimum BLI concentration inhibiting growth with aztreonam 4 μg/mL; tested up to 40 μg/mL
[4] = test system: KP1086 OXA-48; assay: Biapenem potentiation (MPC@1), strain KP1086 OXA-48; assay type: cell-based; conditions: minimum BLI concentration inhibiting growth with biapenem 1 μg/mL; tested up to 40 μg/mL
Description: (§1) Biapenem was present in the test medium at 1 μg/mL. […] Table 3 summarizes the BLI potency of biapenem potentiation (MPC@1) for two strains overexpressing class A (KPC) and class D (OXA-48) carbapenemases. Biapenem MIC for each strain is also shown.

[5] = test system: AB1053 OXA-72; assay: Meropenem potentiation (MPC@8), strain AB1053 OXA-72; assay type: cell-based, Acinetobacter baumannii; conditions: minimum BLI concentration inhibiting growth with meropenem 8 μg/mL; tested up to 20 μg/mL
[6] = test system: KP1009 CTX-M-15; assay: Aztreonam potentiation (MPC@4), strain KP1009 CTX-M-15; conditions: minimum BLI concentration inhibiting growth with aztreonam 4 μg/mL; tested up to 40 μg/mL
[7] = test system: ec302 TEM-10; assay: Aztreonam potentiation (MPC@4), strain ec302 TEM-10; conditions: minimum BLI concentration inhibiting growth with aztreonam 4 μg/mL; tested up to 40 μg/mL
[8] = test system: KP1004 KPC-2; assay: Biapenem potentiation (MPC@1), strain KP1004 KPC-2; assay type: cell-based; conditions: minimum BLI concentration inhibiting growth with biapenem 1 μg/mL; tested up to 40 μg/mL
Description: as §1

[9] = test system: ec308 SHV-5; assay: Aztreonam potentiation (MPC@4), strain ec308 SHV-5; conditions: minimum BLI concentration inhibiting growth with aztreonam 4 μg/mL; tested up to 40 μg/mL
[10] = test system: EC1010 CMY-6; assay: Aztreonam potentiation (MPC@4), strain EC1010 CMY-6; conditions: minimum BLI concentration inhibiting growth with aztreonam 4 μg/mL; tested up to 40 μg/mL
[11] = target: purified class A, C and D enzymes (β-lactamases) (Klebsiella pneumoniae, UniProt Q6XEC0); assay: biochemical; assay type: biochemical; conditions: purified OXA-48; nitrocefin (NCF) as reporter substrate
[12] = target: purified class A, C and D enzymes (β-lactamases) (Escherichia coli, UniProt Q9L5C7); assay: biochemical; assay type: biochemical; conditions: purified CTX-M-14; nitrocefin (NCF) as reporter substrate
Chain of purified class A, C and D enzymes (β-lactamases) (Escherichia coli, UniProt Q9L5C7) (Q9L5C7 entry or part of it): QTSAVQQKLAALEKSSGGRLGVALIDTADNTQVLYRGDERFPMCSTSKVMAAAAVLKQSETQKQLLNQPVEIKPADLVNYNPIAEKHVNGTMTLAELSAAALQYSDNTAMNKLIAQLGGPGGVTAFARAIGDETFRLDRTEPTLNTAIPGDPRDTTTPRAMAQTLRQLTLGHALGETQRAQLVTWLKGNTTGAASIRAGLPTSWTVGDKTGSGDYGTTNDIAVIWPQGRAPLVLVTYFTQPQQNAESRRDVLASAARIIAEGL

[13] = target: T1, purified class A, C and D enzymes (β-lactamases) (Pseudomonas aeruginosa, UniProt P24735); assay: biochemical; assay type: biochemical
T1 construct: rows headed: Ki (Pa-AmpC, NCF), uM; other: purified Pa-AmpC; nitrocefin (NCF) as reporter substrate
T1 sequence (P24735 whole entry): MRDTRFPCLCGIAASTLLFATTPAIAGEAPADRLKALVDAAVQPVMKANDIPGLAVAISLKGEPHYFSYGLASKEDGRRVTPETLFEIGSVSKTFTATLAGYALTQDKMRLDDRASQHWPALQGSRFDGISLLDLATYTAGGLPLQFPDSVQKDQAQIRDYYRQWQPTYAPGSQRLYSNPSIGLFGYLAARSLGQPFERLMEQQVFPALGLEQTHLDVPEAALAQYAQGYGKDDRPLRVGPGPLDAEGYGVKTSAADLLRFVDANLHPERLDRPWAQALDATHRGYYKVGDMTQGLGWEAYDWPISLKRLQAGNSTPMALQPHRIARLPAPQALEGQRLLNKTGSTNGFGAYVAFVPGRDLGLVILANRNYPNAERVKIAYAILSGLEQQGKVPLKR

[14] = target: purified class A, C and D enzymes (β-lactamases) (Enterobacter cloacae, UniProt P05364); assay: biochemical; assay type: biochemical
Chain of purified class A, C and D enzymes (β-lactamases) (Enterobacter cloacae, UniProt P05364) (P05364 21-381): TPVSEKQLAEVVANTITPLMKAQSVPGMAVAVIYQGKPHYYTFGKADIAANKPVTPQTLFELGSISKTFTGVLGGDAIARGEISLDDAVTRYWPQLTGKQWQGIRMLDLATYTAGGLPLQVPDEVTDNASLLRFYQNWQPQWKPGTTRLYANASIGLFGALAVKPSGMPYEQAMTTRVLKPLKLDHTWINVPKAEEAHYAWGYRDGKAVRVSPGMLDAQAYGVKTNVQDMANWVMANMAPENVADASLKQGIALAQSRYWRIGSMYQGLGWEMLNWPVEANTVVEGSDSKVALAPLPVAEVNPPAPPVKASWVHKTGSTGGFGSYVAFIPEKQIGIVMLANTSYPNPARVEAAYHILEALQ

[15] = target: purified class A, C and D enzymes (β-lactamases) (Klebsiella pneumoniae, UniProt Q9F663); assay: biochemical; assay type: biochemical; conditions: purified KPC-2; nitrocefin (NCF) as reporter substrate
[16] = target: T2, purified class A, C and D enzymes (β-lactamases) (Acinetobacter baumannii, UniProt Q9L4P2); assay: biochemical; assay type: biochemical; conditions: purified OXA-23; nitrocefin (NCF) as reporter substrate
T2 construct: rows headed: Ki (OXA-23, NCF), uM; other: purified OXA-23; nitrocefin (NCF) as reporter substrate
T2 sequence (Q9L4P2 whole entry): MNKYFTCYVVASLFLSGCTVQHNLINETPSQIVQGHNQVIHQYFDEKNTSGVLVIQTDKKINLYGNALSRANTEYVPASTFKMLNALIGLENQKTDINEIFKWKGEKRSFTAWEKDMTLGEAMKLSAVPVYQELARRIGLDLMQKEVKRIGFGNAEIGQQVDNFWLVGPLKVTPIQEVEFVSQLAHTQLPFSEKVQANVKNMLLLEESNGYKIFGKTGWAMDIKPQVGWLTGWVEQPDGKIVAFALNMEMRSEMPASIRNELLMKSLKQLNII

[17] = test system: AB1054 OXA-23; assay: Meropenem potentiation (MPC@8), strain AB1054 OXA-23; assay type: cell-based, Acinetobacter baumannii; conditions: minimum BLI concentration inhibiting growth with meropenem 8 μg/mL; tested up to 20 μg/mL
[18] = test system: ECL1002; assay: Aztreonam potentiation (MPC@4), strain ECL1002; conditions: minimum BLI concentration inhibiting growth with aztreonam 4 μg/mL; tested up to 40 μg/mL
[19] = purified Pa-AmpC, nitrocefin (NCF) as reporter substrate, read-out: Ki (Pa-AmpC, NCF)
[20] = purified P99, nitrocefin (NCF) as reporter substrate

Row | Structure (SMILES) | TIG MPC4 CTX-M-14 KP1005 [1] | AZT MPC4 KPC-2 KP1004 [2] | AZT MPC4 SHV-12 KP1010 [3] | BPM MPC1 OXA-48 KP1086 [4] | MPM MPC8 AB1053 OXA-72 [5] | AZT MPC4 CTX-M-15 KP1009 [6] | AZT MPC4 TEM-10 ec302 [7] | BPM MPC1 KP1004 KPC-2 [8] | AZT MPC4 SHV-5 ec308 [9] | AZT MPC4 CMY-6 EC1010 [10] | Ki (OXA-48, NCF), uM [11] | Ki (CTX-M-14, NCF), uM [12] | Ki [13, 19] | Ki (P99, NCF), uM [14, 20] | Ki (KPC-2, NCF), uM [15] | Ki [16] | MPM MPC8 AB1054 OXA-23 [17] | AZT MPC4 ECL1002 [18] | Ki [13] | Ki (P99, NCF), uM [14]
1 | CS(=O)(=O)c1ccc2c(c1C(=O)O)OB(O)CC2 [Compound 39, 2-Hydroxy-7-methylsulfonyl-3,4-dihydro-1,2-benzoxaborinine-8-carboxylic acid] | Y (Y = 5 μg/mL < MPC@4 ≤ 20 μg/mL) | X (X = MPC@4 ≤ 5 μg/mL) | X (X = MPC@4 ≤ 5 μg/mL) | X (X = MPC@1 ≤ 5 μg/mL) | X (X = MPC@1 ≤ 5 μg/mL) | X (X = MPC@4 ≤ 5 μg/mL) | X (X = MPC@4 ≤ 5 μg/mL) | X (X = MPC@1 ≤ 5 μg/mL) | X (X = MPC@4 ≤ 5 μg/mL) | X (X = MPC@4 ≤ 5 μg/mL) | X (X = Ki ≤ 0.1 μM) | X (X = Ki ≤ 0.1 μM) | < 100 nM | X (X = Ki ≤ 0.1 μM) | X (X = Ki ≤ 0.1 μM) | < 100 nM | X (X = MPC@1 ≤ 5 μg/mL) | X (X = MPC@4 ≤ 5 μg/mL) |  | 
2 | COc1c(Cl)cc2c(c1C(=O)O)OB(O)CC2 [Compound 41, 6-Chloro-2-hydroxy-7-methoxy-3,4-dihydro-1,2-benzoxaborinine-8-carboxylic acid] | Y (Y = 5 μg/mL < MPC@4 ≤ 20 μg/mL) | X (X = MPC@4 ≤ 5 μg/mL) | X (X = MPC@4 ≤ 5 μg/mL) | X (X = MPC@1 ≤ 5 μg/mL) | X (X = MPC@1 ≤ 5 μg/mL) | X (X = MPC@4 ≤ 5 μg/mL) | X (X = MPC@4 ≤ 5 μg/mL) | X (X = MPC@1 ≤ 5 μg/mL) | X (X = MPC@4 ≤ 5 μg/mL) | X (X = MPC@4 ≤ 5 μg/mL) | X (X = Ki ≤ 0.1 μM) | X (X = Ki ≤ 0.1 μM) | < 100 nM | X (X = Ki ≤ 0.1 μM) | X (X = Ki ≤ 0.1 μM) | < 100 nM | X (X = MPC@1 ≤ 5 μg/mL) | X (X = MPC@4 ≤ 5 μg/mL) |  | 
3 | O=C([O-])c1c(O)ccc2c1O[B-](O)(O)CC2.[Na+].[Na+] [Compound 42, Disodium; 4,4,8-trihydroxy-5-oxa-4-boranuidabicyclo[4.4.0]deca-1(6),7,9-triene-7-carboxylate] | Z (Z = MPC@4 > 20 μg/mL) | Y (Y = 5 μg/mL < MPC@4 ≤ 20 μg/mL) | X (X = MPC@4 ≤ 5 μg/mL) | X (X = MPC@1 ≤ 5 μg/mL) | Z (Z = MPC@1 > 20 μg/mL) | Z (Z = MPC@4 > 20 μg/mL) | Y (Y = 5 μg/mL < MPC@4 ≤ 20 μg/mL) | X (X = MPC@1 ≤ 5 μg/mL) | Y (Y = 5 μg/mL < MPC@4 ≤ 20 μg/mL) | Z (Z = MPC@4 > 20 μg/mL) | X (X = Ki ≤ 0.1 μM) | X (X = Ki ≤ 0.1 μM) |  |  | X (X = Ki ≤ 0.1 μM) | 100 to 1000 nM | Z (Z = MPC@1 > 20 μg/mL) | Z (Z = MPC@4 > 20 μg/mL) | 100 to 1000 nM | Y (key: X = Ki ≤ 0.1 μM; Y = 0.1 μM < Ki ≤ 1 μM; Z = Ki > 1 μM)
4 | O=C([O-])c1c(OCCF)ccc2c1O[B-](O)(O)CC2.[Na+].[Na+] [Compound 43, Disodium; 8-(2-fluoroethoxy)-4,4-dihydroxy-5-oxa-4-boranuidabicyclo[4.4.0]deca-1(6),7,9-triene-7-carboxylate] | X (X = MPC@4 ≤ 5 μg/mL) | X (X = MPC@4 ≤ 5 μg/mL) | X (X = MPC@4 ≤ 5 μg/mL) | X (X = MPC@1 ≤ 5 μg/mL) | X (X = MPC@1 ≤ 5 μg/mL) | X (X = MPC@4 ≤ 5 μg/mL) | X (X = MPC@4 ≤ 5 μg/mL) | X (X = MPC@1 ≤ 5 μg/mL) | X (X = MPC@4 ≤ 5 μg/mL) | X (X = MPC@4 ≤ 5 μg/mL) | X (X = Ki ≤ 0.1 μM) | X (X = Ki ≤ 0.1 μM) |  |  | X (X = Ki ≤ 0.1 μM) | < 100 nM | X (X = MPC@1 ≤ 5 μg/mL) | X (X = MPC@4 ≤ 5 μg/mL) | < 100 nM | X (key: X = Ki ≤ 0.1 μM; Y = 0.1 μM < Ki ≤ 1 μM; Z = Ki > 1 μM)
5 | O=C([O-])c1c(OCC2CC2)ccc2c1O[B-](O)(O)CC2.[Na+].[Na+] [Compound 45, Disodium; 8-(cyclopropylmethoxy)-4,4-dihydroxy-5-oxa-4-boranuidabicyclo[4.4.0]deca-1(6),7,9-triene-7-carboxylate] | Z (Z = MPC@4 > 20 μg/mL) | X (X = MPC@4 ≤ 5 μg/mL) | X (X = MPC@4 ≤ 5 μg/mL) | X (X = MPC@1 ≤ 5 μg/mL) | X (X = MPC@1 ≤ 5 μg/mL) | Z (Z = MPC@4 > 20 μg/mL) | Y (Y = 5 μg/mL < MPC@4 ≤ 20 μg/mL) | X (X = MPC@1 ≤ 5 μg/mL) | Y (Y = 5 μg/mL < MPC@4 ≤ 20 μg/mL) | X (X = MPC@4 ≤ 5 μg/mL) | X (X = Ki ≤ 0.1 μM) | X (X = Ki ≤ 0.1 μM) |  |  | X (X = Ki ≤ 0.1 μM) | < 100 nM | X (X = MPC@1 ≤ 5 μg/mL) | Y (Y = 5 μg/mL < MPC@4 ≤ 20 μg/mL) | < 100 nM | X (key: X = Ki ≤ 0.1 μM; Y = 0.1 μM < Ki ≤ 1 μM; Z = Ki > 1 μM)
6 | NC(=O)COc1ccc2c(c1C(=O)O)OB(O)CC2 [Compound 46, 7-(2-Amino-2-oxo-ethoxy)-2-hydroxy-3,4-dihydro-1,2-benzoxaborinine-8-carboxylic acid] | Z (Z = MPC@4 > 20 μg/mL) | X (X = MPC@4 ≤ 5 μg/mL) | X (X = MPC@4 ≤ 5 μg/mL) | Y (Y = 5 μg/mL < MPC@1 ≤ 20 μg/mL) | X (X = MPC@1 ≤ 5 μg/mL) | X (X = MPC@4 ≤ 5 μg/mL) | X (X = MPC@4 ≤ 5 μg/mL) | X (X = MPC@1 ≤ 5 μg/mL) | X (X = MPC@4 ≤ 5 μg/mL) | X (X = MPC@4 ≤ 5 μg/mL) | X (X = Ki ≤ 0.1 μM) | X (X = Ki ≤ 0.1 μM) | < 100 nM | X (X = Ki ≤ 0.1 μM) | X (X = Ki ≤ 0.1 μM) | < 100 nM | Y (Y = 5 μg/mL < MPC@1 ≤ 20 μg/mL) | X (X = MPC@4 ≤ 5 μg/mL) |  | 
